We go through 19 molecules from ChEMBL document CHEMBL1201862, “PubChem BioAssay data set” (2004).

Activity calls are given as the source filed them.

Assay [1] can be described thus: A Cell Based Secondary Assay To Explore Cytotoxicity of Compounds that Sensitize Mycobacterium Tuberculosis to Beta-Lactam Antibiotics. The format is functional.
Assay [2] in a line: Trypanosoma cruzi growth suppression in host cells – NIH3T3 host cells, beta-gal luminescence, confirmation (AID 2044).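 Note: intracellular parasites grown in NIH/3T3 mouse fibroblasts as host cells; luminescent beta-galactosidase reporter signal from transgenic T. cruzi replicating inside host cells; inhibitors lower the luminescence signal.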 The format is functional, cell-based.
The nature of assay [3]: NIH3T3 cell viability loss – ATP luminescence, mouse fibroblasts, counter-screen, dose response (AID 2010).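 Note: cells exposed to compound for about 90 hours before reading.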 The format is functional, cell-based.
The target in assay [4] is Heat shock protein HSP 90-alpha (Homo sapiens, UniProt P07900). The format is functional, organism-based.
Assay [5] is described as follows: cells.
For assay [6], the target named is Induced myeloid leukemia cell differentiation protein Mcl-1 (Homo sapiens, UniProt Q07820). Nature of the assay: blockers of MCL1 binding to BIM peptide – biochemical, fluorescence polarization, BIM-BH3 peptide, 1536-well, dose response (AID 2217).
Induced myeloid leukemia cell differentiation protein Mcl-1, sequence (Q07820 whole entry): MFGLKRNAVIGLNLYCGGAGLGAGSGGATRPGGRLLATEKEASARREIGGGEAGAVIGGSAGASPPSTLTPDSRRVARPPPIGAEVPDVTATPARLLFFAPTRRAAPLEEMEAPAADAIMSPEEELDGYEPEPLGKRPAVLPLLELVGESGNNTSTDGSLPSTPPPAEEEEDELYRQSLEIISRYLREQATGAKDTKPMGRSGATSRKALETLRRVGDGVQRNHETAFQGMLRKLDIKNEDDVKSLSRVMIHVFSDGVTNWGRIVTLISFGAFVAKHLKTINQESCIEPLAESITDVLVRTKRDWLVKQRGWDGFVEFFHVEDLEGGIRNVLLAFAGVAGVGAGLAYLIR
Assay [7] deals with Bcl-2-like protein 1 (Homo sapiens, UniProt Q07817). Nature of the assay: blockers of BCLXL peptide binding – biochemical, fluorescence polarization, 1536-well, selectivity assay for MCL1 inhibitor project, dose response (AID 2218).
Bcl-2-like protein 1, sequence (Q07817 whole entry): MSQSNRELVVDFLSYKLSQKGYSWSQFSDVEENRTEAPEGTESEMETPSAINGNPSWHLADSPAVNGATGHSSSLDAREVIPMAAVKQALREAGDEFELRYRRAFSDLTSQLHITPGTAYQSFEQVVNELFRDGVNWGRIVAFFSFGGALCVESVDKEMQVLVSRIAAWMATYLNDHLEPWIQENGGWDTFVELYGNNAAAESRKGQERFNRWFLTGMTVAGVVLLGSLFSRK
Assay [8] deals with T1, Heat shock factor protein 1 (Mus musculus, UniProt P38532).
T1 sequence (P38532 whole entry): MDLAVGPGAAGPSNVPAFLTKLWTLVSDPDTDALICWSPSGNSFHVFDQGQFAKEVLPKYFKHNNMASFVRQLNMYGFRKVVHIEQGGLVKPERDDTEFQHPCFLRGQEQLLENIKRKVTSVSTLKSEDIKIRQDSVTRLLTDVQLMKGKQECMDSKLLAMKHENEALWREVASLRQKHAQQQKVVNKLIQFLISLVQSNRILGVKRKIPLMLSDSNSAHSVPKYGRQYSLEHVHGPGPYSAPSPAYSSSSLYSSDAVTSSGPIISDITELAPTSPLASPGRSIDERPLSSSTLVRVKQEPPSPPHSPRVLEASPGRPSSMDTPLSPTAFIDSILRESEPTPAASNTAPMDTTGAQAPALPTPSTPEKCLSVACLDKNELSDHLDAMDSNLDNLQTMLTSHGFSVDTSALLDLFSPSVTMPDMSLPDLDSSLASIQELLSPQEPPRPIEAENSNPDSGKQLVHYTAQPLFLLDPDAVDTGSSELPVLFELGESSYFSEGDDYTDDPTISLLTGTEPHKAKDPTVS
Nature of the assay: decrease of HSF1-responsive luciferase luminescence – cell-based, NIH3T3, dose retest, confirmation (AID 2382).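 Note: NIH3T3 fibroblasts with HSF1-driven luciferase reporter stressed by proteasome inhibitor MG132; luminescence from HSF1-driven luciferase expression after 8 hours of MG132 stress.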 The format is functional.

In assay [9] the target is T2, Estrogen receptor (Homo sapiens, UniProt P03372).
T2 sequence (P03372 whole entry): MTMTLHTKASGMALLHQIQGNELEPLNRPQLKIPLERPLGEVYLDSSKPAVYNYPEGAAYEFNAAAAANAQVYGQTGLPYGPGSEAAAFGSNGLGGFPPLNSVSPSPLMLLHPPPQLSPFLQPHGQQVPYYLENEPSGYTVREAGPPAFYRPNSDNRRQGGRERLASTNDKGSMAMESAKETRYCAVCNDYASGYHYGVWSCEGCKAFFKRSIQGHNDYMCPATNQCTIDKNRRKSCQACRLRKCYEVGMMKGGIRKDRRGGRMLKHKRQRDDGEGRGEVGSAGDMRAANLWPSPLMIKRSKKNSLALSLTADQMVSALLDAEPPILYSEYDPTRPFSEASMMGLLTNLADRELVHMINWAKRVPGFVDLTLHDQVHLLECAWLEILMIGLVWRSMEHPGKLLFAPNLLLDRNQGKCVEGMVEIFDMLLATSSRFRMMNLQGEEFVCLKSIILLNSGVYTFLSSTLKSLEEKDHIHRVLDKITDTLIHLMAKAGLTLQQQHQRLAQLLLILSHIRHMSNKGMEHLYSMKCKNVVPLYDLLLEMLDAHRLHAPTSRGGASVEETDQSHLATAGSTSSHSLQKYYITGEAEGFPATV

The target of assay [10] is Estrogen receptor beta (Homo sapiens, UniProt Q92731).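 Note: recombinant ER-beta bound to coactivator SRC1 peptide in presence of estradiol agonist; inhibitors block coactivator peptide binding and lower the FRET signal.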
Estrogen receptor beta, sequence (Q92731 whole entry): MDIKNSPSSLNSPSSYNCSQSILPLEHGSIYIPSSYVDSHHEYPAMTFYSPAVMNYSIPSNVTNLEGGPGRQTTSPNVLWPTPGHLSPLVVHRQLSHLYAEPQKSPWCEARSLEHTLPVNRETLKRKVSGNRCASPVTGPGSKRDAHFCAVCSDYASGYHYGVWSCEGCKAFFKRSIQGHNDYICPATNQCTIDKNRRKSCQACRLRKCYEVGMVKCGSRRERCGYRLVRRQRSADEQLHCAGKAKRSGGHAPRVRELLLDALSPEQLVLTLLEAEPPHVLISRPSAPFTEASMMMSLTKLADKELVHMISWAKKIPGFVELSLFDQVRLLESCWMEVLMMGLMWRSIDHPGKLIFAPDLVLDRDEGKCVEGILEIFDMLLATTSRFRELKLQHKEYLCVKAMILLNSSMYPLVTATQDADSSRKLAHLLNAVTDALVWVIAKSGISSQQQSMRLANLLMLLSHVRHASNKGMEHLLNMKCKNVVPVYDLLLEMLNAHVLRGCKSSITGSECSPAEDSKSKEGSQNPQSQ
In assay [11] the target is T3, Neuropeptide Y receptor type 1 (Homo sapiens, UniProt P25929).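 Note: HEK293 cells with a CNG channel challenged with NPY then isoproterenol; potency as antagonist that reverses NPY suppression of cAMP signal.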
T3 sequence (P25929 whole entry): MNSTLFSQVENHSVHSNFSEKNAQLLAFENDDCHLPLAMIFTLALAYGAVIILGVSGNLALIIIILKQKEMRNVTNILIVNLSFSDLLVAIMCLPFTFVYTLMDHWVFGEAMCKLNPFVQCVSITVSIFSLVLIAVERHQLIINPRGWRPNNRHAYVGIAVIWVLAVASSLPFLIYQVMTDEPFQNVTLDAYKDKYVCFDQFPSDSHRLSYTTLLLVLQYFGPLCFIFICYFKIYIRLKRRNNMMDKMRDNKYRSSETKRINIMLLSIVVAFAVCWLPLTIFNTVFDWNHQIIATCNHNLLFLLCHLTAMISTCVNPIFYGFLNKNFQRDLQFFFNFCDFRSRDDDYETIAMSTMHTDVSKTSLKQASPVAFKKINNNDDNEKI
The format is functional.

Assay [12] has as its target T4, Neuropeptide Y receptor type 2 (Homo sapiens, UniProt P49146).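 Note: HEK293 cells expressing the receptor and a CNG channel; stimulus was NPY near EC95 followed by isoproterenol to raise cAMP; antagonist potency measured as restoring cAMP signal that NPY suppresses.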
T4 sequence (P49146 whole entry): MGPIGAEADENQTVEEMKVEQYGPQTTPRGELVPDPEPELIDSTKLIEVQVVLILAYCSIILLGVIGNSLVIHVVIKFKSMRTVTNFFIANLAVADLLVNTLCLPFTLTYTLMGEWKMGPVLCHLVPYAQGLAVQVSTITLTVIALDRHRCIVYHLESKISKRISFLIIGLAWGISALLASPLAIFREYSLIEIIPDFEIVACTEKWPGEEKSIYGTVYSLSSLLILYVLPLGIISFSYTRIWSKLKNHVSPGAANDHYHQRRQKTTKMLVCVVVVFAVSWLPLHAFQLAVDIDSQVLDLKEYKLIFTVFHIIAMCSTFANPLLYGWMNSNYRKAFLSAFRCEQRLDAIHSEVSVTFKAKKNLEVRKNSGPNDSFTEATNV
The format is functional, cell-based.

Assay [13] deals with Neurotensin receptor type 1 (Homo sapiens, UniProt P30989). The format is functional.
Neurotensin receptor type 1, sequence (P30989 whole entry): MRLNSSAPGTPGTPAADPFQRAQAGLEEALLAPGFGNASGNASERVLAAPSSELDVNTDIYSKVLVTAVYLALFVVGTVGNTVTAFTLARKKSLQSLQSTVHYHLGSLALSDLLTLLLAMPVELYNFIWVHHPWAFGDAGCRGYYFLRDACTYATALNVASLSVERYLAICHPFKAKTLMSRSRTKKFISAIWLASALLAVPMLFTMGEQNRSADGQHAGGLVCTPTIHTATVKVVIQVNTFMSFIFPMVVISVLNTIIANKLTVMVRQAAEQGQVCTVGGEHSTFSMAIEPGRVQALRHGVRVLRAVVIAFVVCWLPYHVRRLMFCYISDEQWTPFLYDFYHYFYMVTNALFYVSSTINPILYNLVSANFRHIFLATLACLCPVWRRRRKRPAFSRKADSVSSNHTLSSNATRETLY
Assay [14] is described as follows: luciferase reporter signal suppression in cells – H4 neuroglioma cells, luminescence, dose response (AID 1990). The format is functional, cell-based.
Assay [15] is described as follows: luciferase reporter signal reduction – luminescence, H4-C neuroglioblastoma cells, dose response (AID 2458).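 Note: H4 neuroglioblastoma cells stably carrying a luciferase reporter gene fusion.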 The format is functional, cell-based. (In general: A reporter such as luciferase makes a cellular process visible.)
In assay [16] the test system is BJ. Nature of the assay: BJ-TERT fibroblast viability loss – cell-based, RAS-independent, luminescence, dose response (AID 1933). The format is functional. As to conditions: Homo sapiens.
The nature of assay [17]: cells. The format is functional, cell-based.
The nature of assay [18]: Luminescence Cell-Based Dose Response HTS to Identify Inhibitors of 5'UTR Stem-Loop Driven Prion Protein mRNA Translation in H4 Neuroglioblastoma Cells. [Related pubchem assays: 1827 (Project Summary), 1813 (Primary HTS)]. The format is functional.
A short description of assay [19]: alpha-synuclein stem-loop luciferase translation blockers – H4 neuroglioma cells, luminescence, confirmation (AID 1988). The format is functional, cell-based.
Assay [20] has as its system BJ. The assay is described as follows: cells. The format is functional, cell-based. As to conditions: Homo sapiens.
The subject of assay [21] is BJ. The assay is described as follows: BJ-TERT-LT-ST fibroblast viability loss – cell-based, RAS-independent, luminescence, dose response (AID 1935).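 Note: BJ fibroblasts immortalized with TERT plus LT and ST oncogenes.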 The format is functional. As to conditions: Homo sapiens.
A short description of assay [22]: DRD fibroblast viability loss – cell-based, non-viral oncogenic, luminescence, dose response (AID 1934). The format is functional. As to conditions: Homo sapiens.
Assay [23] in a line: alpha-synuclein stem-loop translation blockers – luminescence, H4 neuroglioblastoma cells, dose confirmation, confirmation (AID 2454).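 Note: H4 neuroglioblastoma cells carrying an alpha-synuclein 5'UTR luciferase reporter; potency for inhibition of the luciferase signal.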 The format is functional, cell-based.
Assay [24] addresses Luciferin 4-monooxygenase (Photinus pyralis, UniProt P08659). The assay is described as follows: inhibition of purified Photinus pyralis luciferase – biochemical, luminescence, dose response (AID 1891).
Assay [25] is described as follows: Luminescence Cell-Based Dose Confirmation HTS to Identify Inhibitors of Platelet Dense Granule Release. [Related pubchem assays: 1663 (Primary HTS), 1678 (Summary of Project)]. The format is functional.
The nature of assay [26]: microbe, parasite or virus in culture. The format is functional. To be noted: Mycobacterium tuberculosis.
Assay [27] concerns the target Cytochrome P450 3A4 (Homo sapiens, UniProt P08684). To be noted: Potency.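 Note: confirmatory qHTS run detecting inhibitors and substrates of CYP3A4.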
The target in assay [28] is Melanin-concentrating hormone receptor 1 (Homo sapiens, UniProt Q99705). Nature of the assay: Late-stage fluorescence-based counterscreen for antagonists of the G-protein coupled receptor 7 (GPR7): cell-based dose response assay to identify antagonists of the melanin-concentrating hormone receptor 1 (MCHR1). [Related pubchem assays (depositor defined):AID1861, AID1880, AID1952, AID2148, AID2251, AID2257, AID485339]. The format is functional. Background: A counterscreen serves to expose hits that act by an unwanted route or on another target.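 Note: stimulated with 30 nM MCH peptide agonist.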
Melanin-concentrating hormone receptor 1, sequence (Q99705 whole entry): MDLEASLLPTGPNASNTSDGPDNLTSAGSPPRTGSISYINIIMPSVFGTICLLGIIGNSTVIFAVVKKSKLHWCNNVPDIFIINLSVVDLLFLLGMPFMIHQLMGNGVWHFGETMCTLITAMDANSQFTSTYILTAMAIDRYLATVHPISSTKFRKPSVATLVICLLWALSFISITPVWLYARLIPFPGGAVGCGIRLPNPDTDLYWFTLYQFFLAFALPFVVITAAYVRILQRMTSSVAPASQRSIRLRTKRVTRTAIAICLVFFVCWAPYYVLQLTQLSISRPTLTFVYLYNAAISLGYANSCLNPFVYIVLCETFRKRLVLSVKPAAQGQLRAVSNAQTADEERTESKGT

Cytochrome P450 3A4, sequence (P08684 whole entry): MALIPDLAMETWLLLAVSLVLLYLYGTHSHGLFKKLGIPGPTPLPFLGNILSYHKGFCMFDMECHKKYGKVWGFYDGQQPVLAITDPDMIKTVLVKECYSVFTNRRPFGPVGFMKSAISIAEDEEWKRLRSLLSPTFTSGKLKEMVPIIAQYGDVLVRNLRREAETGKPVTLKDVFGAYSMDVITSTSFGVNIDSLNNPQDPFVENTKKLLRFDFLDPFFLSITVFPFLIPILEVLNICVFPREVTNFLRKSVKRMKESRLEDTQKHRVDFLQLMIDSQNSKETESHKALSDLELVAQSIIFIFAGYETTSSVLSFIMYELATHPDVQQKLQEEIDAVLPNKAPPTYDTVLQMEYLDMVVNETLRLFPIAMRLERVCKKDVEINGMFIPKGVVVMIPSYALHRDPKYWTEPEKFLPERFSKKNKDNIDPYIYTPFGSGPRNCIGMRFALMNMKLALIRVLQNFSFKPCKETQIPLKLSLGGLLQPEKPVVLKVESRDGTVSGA
Luciferin 4-monooxygenase, sequence (P08659 whole entry): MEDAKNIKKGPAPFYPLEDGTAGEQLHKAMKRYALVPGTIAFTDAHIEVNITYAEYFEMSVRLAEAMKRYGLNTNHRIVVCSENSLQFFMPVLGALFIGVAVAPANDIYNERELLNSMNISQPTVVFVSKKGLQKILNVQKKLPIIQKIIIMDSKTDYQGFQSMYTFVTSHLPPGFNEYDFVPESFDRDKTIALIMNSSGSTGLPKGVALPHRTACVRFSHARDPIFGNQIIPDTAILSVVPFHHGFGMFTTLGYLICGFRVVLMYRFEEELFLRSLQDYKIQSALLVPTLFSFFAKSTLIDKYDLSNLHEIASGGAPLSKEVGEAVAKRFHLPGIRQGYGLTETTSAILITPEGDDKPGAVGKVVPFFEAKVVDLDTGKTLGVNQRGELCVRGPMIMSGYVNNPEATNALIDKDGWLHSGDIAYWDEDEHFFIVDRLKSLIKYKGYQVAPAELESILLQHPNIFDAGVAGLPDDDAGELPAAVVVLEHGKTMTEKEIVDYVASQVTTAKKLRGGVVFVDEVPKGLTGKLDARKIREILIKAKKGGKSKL

For the molecule `CCc1ccc2oc(-c3cc(N)cc(C)c3O)nc2c1`, in assay [1], the CC50 is > 40 µM (active).
By EC50 is commonly meant the concentration needed to bring the measured effect to its halfway point. By AC50 is commonly meant the midpoint of the concentration-response curve, whichever way the signal moves. Turning to `Cc1sc(NC(=O)c2ccco2)c(C(c2cccnc2)N2CCC(C)CC2)c1C` (centres undefined), the results for the EC50 in assay [2], in [3] and in assay [5] were < 0.1 µM (active), 9.92 µM (active) and 0.182 µM (active), respectively. For the same molecule, the AC50 in [4] is 4.94 µM (active).
The term IC50 denotes the concentration needed to halve the response being measured. Consider `C[C@H](NS(=O)(=O)OCC(Cl)(Cl)Cl)C1CC1c1ccccc1` (some centres undefined), for which the IC50 in assay [6] is recorded as 65.4 µM (not active); in assay [7], > 109 µM (not active).
For `COc1ccc(NC(=O)c2ccco2)cc1N`, the concentration giving a half-maximal response (EC50) in [8] was > 195 µM (not active). Further, the half-inhibitory concentration (IC50) in [9] was 36.1 µM (not active); in assay [10] it was 10.7 µM (active).
On to `O=C(O)CSc1nnc(-c2ccc3c(c2)OCO3)o1`, for which the IC50 in assay [11] and in [12] was > 35 µM (not active) in each case.
On to `COc1cccc(/C=C/C(=O)c2cccc([N+](=O)[O-])c2)c1OC`, for which, in assay [13], the EC50 is 9.39 µM (active).
Turning to `O=C(COc1ncnc2cc([N+](=O)[O-])ccc12)NCCc1ccc(Cl)cc1`, the concentration giving a half-maximal response (EC50) in assay [2] was < 0.1 µM (active); in assay [3], > 30 µM (not active); in assay [5], 0.377 µM (active).
In the case of `COc1cc(CN2CCCCC2)ccc1OCc1ccccc1`, the half-maximal effective concentration (EC50) in [2] was < 0.1 µM (active); in [3] it was > 60 µM (not active); in assay [5] it was 0.67 µM (active).
For `Brc1ccc(C2=Nn3c(nnc3-c3[nH]nc4c3CCC4)SC2)cc1`, the 50% effective concentration (EC50) in [14] is 11.9 µM (active); in assay [15] it was > 3.8 µM (not active); in [16], 2.33 µM (active); in assay [17] it was 2.12 µM (active); in assay [18] it was > 120 µM (not active); in assay [19], < 0.1 µM (active). The EC50 was 43.5 µM (active) in [20], 138 µM (inconclusive) in [21], 1.65 µM (active) in assay [22] and 1.97 µM (active) in assay [23].
For `O=C(CN(C(=O)c1ccc(Cl)cc1)N1C(=O)C2CCCCC2C1=O)c1ccc(Cl)cc1` (centres undefined), in assay [13], the EC50 was 18 µM (active).
As to `Cc1nc(N2CCC(C)CC2)c2oc3ccccc3c2n1`, the values for the IC50 in assay [11] and in assay [12] were 7.23 µM (active) and 5.77 µM (active), respectively. Also, the results for the half-maximal effective concentration (EC50) in assay [24] and in assay [25] were 109 µM (active) and > 112 µM (not active), respectively. Moreover, the CC50 in assay [26] is > 40 µM (active).
Consider `COC(=O)[C@@]1(C)C=C[C@@H](Cc2ccccc2)N1C(=O)c1ccccc1`, for which the AC50 in assay [27] was 20 µM (inconclusive).
In the case of `C=C(C)COc1ccc2c(C)c(C)c(=O)oc2c1OCC(=C)C`, the CC50 in assay [1] is > 40 µM (active).
For `C(#CC1C=CC2OC(c3ccccc3)OCC2O1)c1ccccc1` (centres undefined), in [27], the AC50 was 2.51 µM (inconclusive).
For `CC(C)c1ccc(Nc2nnc(SC3CCOC3=O)s2)cc1` (centres undefined), the EC50 in assay [13] was 7.37 µM (active).
With `CCOc1ccc(Oc2c(Br)cnn(-c3ccc(C(C)C)cc3)c2=O)cc1`, the IC50 in [28] was 3.1 µM (active).
In the case of `COC(=O)c1c(CSc2cccc(C)c2)noc1C(=O)NCc1ccco1`, the CC50 in assay [1] was > 40 µM (active).
As to `CCCCCCC1=Cc2cc(OC)c(OC)cc2C(C(C(C)=O)C(=O)OC)O1` (centres undefined), the concentration at half-maximal activity (AC50) in assay [27] was 3.16 µM (inconclusive).
Take `O=C(COC(=O)c1ccc(-c2ccccc2)cc1)Nc1ccccc1-c1ccccc1`: the results for the IC50 in [11] and in [12] were 5.72 µM (active) and 6.97 µM (active), respectively.
